Assay results published in article PMC12207590, “Substrate Specificity of the Organic Cation Transporters MATE1 and MATE2K and Functional Overlap with OCT1 and OCT2” (Journal of Medicinal Chemistry, 2025).
Where two headings read alike, the source gives them in different places.

Assays:
MATE1 [1] = molecular target: T1, MATE1 (Homo sapiens, UniProt Q96FL8); assay: Uptake ratio in MATE1-overexpressing HEK293 cells vs empty vector (2.5 μM, 1 min, HPLC-MS/MS); assay type: cell-based; set-up: key to MATE1 substrate*: 1 = substrate; 0 = no substrate; details: for MATE1 substrate*: Table S4; for MATE1: uptake ratio MATE1-overexpressing vs empty-vector HEK293 cells, mean
T1 sequence (Q96FL8 1-570): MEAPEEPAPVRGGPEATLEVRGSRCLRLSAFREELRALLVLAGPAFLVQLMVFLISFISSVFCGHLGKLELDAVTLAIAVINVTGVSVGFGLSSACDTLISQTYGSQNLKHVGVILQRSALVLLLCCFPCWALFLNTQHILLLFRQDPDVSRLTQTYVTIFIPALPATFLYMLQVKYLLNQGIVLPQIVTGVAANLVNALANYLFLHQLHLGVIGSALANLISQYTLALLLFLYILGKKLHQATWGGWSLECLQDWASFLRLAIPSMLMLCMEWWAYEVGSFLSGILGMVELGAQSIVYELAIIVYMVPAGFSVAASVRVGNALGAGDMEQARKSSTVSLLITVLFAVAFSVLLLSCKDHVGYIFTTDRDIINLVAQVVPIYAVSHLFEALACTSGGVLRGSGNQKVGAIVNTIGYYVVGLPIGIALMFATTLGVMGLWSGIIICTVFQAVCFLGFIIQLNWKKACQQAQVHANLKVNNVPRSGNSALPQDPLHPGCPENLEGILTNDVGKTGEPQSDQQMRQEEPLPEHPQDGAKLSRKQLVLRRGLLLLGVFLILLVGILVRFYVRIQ

MATE2K [2] = molecular target: T2, MATE2K (Homo sapiens, UniProt Q86VL8); assay: Uptake ratio in MATE2K-overexpressing HEK293 cells vs empty vector (2.5 μM, 1 min, HPLC-MS/MS); assay type: cell-based; set-up: key to MATE2 substrate*: 1 = substrate; 0 = no substrate; details: for MATE2 substrate*: Table S4; for MATE2: uptake ratio MATE2K-overexpressing vs empty-vector HEK293 cells, mean
T2 sequence (Q86VL8 1-566 isoform Q86VL8-3): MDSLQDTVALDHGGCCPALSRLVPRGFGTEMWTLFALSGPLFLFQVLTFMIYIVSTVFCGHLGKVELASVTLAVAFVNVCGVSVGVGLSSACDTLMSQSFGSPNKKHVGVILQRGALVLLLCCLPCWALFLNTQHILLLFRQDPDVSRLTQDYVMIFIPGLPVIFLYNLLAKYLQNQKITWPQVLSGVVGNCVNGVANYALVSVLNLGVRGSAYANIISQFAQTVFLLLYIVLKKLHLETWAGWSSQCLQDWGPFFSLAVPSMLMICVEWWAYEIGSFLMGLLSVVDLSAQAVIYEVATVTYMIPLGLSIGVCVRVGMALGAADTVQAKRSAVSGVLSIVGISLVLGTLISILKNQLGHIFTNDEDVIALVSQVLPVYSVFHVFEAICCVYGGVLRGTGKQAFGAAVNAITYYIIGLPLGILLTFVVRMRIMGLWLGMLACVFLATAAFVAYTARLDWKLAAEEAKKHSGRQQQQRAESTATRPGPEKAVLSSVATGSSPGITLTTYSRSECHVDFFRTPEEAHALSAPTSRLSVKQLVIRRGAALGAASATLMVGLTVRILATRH

[3] = system: MATE1, MATE2K, OCT1, OCT2; assay: Substrate specificity and overlap among the four transporters (ratio cutoff 2); assay type: cell-based, human; details: transport ratio cutoff of 2
MATE1 [4] = molecular target: T1, MATE1; details: for MATE1 Clint: human, pH 7.4
MATE1 [5] = molecular target: T1, MATE1; assay: Concentration-dependent uptake (Michaelis-Menten) via MATE1 in HEK293 cells
MATE2K [6] = molecular target: T2, MATE2K; assay: Concentration-dependent uptake (Michaelis-Menten) via MATE2K in HEK293 cells; details: HEK293, 1 min, net uptake; for Km: read-out: MATE2K KM
OCT1 = molecular target: T3, OCT1 (Homo sapiens, UniProt O15245); assay: Uptake in OCT1-overexpressing HEK293 cells (substrate yes/no); assay type: cell-based; set-up: key: 1 = substrate; 0 = no substrate; details: Table S4
T3 sequence (O15245 1-554): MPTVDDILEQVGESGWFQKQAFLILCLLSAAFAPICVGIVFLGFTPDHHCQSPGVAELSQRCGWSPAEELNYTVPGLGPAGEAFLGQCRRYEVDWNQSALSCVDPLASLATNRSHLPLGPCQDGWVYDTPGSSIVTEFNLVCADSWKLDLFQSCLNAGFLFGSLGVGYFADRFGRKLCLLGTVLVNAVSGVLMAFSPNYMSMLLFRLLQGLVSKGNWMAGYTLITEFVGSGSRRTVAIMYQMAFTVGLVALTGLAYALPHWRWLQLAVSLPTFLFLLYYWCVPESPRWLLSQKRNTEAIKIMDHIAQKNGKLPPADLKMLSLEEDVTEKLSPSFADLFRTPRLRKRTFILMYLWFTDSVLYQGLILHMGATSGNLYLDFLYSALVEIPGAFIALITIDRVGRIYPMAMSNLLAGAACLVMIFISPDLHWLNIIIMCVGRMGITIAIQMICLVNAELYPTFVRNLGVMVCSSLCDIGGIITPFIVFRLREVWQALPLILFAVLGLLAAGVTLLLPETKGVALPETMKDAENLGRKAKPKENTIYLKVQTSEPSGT
Protocol: (§1) The cell lines were generated using the recombinant site-specific Flp-In^TM system as previously described. , All cell lines used in the transport experiments were cultured at 37 °C and 5% CO2 with Dulbecco’s Modified Eagle’s Medium (DMEM) supplemented with 10% (v/v) FBS and the antibiotics penicillin (100 U/mL) and streptomycin (100 μg/mL).

OCT2 = molecular target: T4, OCT2 (Homo sapiens, UniProt O15244); assay: Uptake in OCT2-overexpressing HEK293 cells (substrate yes/no); assay type: cell-based; set-up: key: 1 = substrate; 0 = no substrate; details: Table S4
T4 sequence (O15244 1-555): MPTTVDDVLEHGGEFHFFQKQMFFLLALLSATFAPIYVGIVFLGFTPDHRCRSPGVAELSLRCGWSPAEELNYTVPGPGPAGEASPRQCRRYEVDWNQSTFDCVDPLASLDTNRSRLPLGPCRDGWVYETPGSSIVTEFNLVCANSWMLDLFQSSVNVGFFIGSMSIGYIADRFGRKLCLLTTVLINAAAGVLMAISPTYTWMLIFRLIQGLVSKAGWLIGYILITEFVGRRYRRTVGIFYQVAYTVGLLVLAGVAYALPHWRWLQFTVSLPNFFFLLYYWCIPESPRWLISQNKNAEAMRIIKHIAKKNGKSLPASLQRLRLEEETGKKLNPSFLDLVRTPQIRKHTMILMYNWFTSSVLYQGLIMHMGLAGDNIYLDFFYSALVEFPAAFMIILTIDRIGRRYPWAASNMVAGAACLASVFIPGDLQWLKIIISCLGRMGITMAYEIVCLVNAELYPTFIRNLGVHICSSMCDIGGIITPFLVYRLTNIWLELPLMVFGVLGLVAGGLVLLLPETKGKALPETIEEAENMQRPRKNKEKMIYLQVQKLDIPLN
Protocol: as §1

MATE1 [7] = molecular target: T1, MATE1; assay: in vitro; details: other cell line, pH 7.4
MATE2K [8] = molecular target: T2, MATE2K; assay: in vitro; details: other cell line, pH 7.4
[9] = human; cited from earlier work
renal MATE1 = details: 800 mg cimetidine; cited from earlier work
[10] = fold uptake over empty vector, 2.5 μM, 1 min

SMILES	MATE1 substrate* (MATE1 [1])	MATE1 (MATE1 [1]; 2.5 μM, 1 min)	MATE2 substrate* (MATE2K [2])	MATE2 (MATE2K [2]; 2.5 μM, 1 min)	OCT1 substrate* (OCT1)	OCT2 substrate* (OCT2)	MATE1 Vmax (MATE1 [5]; HEK293, 1 min, net uptake)	MATE2K Vmax (MATE2K [6])	Km (MATE2K [6]) [µM]	further results
CN(C)C(=O)Oc1cccc([N+](C)(C)C)c1 [Neostigmine]	–	–	–	–	–	–	–	3139 pmol × mg protein^–1 × min^–1	385	MATE1 ratio (MATE1 [1]): 32.31; MATE2K ratio (MATE2K [2]): 5.31; Substrate specificity among MATE1, MATE2K, OCT1, OCT2 [3]: All four transporters; Km (MATE1 [4]): 160 µM; MATE1 Clint (MATE1 [4]): 45.2 μL × mg protein^–1 × min^–1; MATE1 Vmax (MATE1 [5]): 7255 pmol × mg protein^–1 × min^–1
c1c2c(cc3c1OCO3)-c1cc3ccc4c(c3c[n+]1CC2)OCO4 [Coptisine]	–	–	–	–	–	–	–	246 pmol × mg protein^–1 × min^–1	1.88	MATE1 ratio (MATE1 [1]): 9.90; MATE2K ratio (MATE2K [2]): 6.48; Km (MATE1 [4]): 20 µM; MATE1 Clint (MATE1 [4]): 145 μL × mg protein^–1 × min^–1; microsomal CLint (MATE1 [7]): 145 µL/min/mg; microsomal CLint (MATE2K [8]): 131 µL/min/mg; MATE1 Vmax (MATE1 [5]): 2901 pmol × mg protein^–1 × min^–1
O=C1Cc2cc(CCN3CCN(c4nsc5ccccc45)CC3)c(Cl)cc2N1 [Ziprasidone]	0	1.2	0	1.25	0	0	–	–	–	–
CN/C(=N\CCSCc1nc[nH]c1C)NC#N [Cimetidine]	–	–	–	–	–	–	–	–	–	MATE1 ratio in this study (MATE1 [1]; Table S1, 2.5 μM, 1 min): 11.52; MATE1 ratio (MATE1 [1]; [10]): 11.52; MATE1 ratio (MATE1 [1]; fold uptake over empty vector, 2.5 μM, 1 min, listed as cimetidine): above 2; MATE1 (uptake ratio) (MATE1 [1]; mean ratio of uptake in MATE1-overexpressing HEK293 cells vs empty vector, 2.5 μM, 1 min): 11.52; MATE2K ratio in this study (MATE2K [2]; Table S1, 2.5 μM, 1 min): 3.60; MATE2K ratio (MATE2K [2]; [10]): 3.60; MATE2 (uptake ratio) (MATE2K [2]; mean ratio of uptake in MATE2K-overexpressing HEK293 cells vs empty vector, 2.5 μM, 1 min): 3.6; eliminated unchanged via the kidneys [9]: more than 70%; inhibition of metformin elimination (renal MATE1): approximately 43%

Continued, in another order:

MATE1 substrate* (MATE1 [1])	MATE1 (MATE1 [1]; 2.5 μM, 1 min)	MATE2 substrate* (MATE2K [2])	MATE2 (MATE2K [2]; 2.5 μM, 1 min)	OCT1 substrate* (OCT1)	OCT2 substrate* (OCT2)	MATE1 Vmax (MATE1 [5]; HEK293, 1 min, net uptake)	SMILES	MATE2K Vmax (MATE2K [6])	Km (MATE2K [6]) [µM]	further results
1	11.83	1	5.51	1	0	2992 pmol × mg protein^–1 × min^–1	CN(C)CCc1c[nH]c2ccc(C[C@H]3COC(=O)N3)cc12 [Zolmitriptan]	–	–	–
1	13.34	1	5.38	1	0	2849 pmol × mg protein^–1 × min^–1	CN(C)CCc1c[nH]c2ccc(C[C@H]3COC(=O)N3)cc12 [Zolmitriptan (S), Zolmitriptan]	1662 pmol × mg protein^–1 × min^–1	94.5	–
1	12.88	1	6.48	1	1	2624 pmol × mg protein^–1 × min^–1	CN(C)CCc1c[nH]c2ccc(C[C@H]3COC(=O)N3)cc12 [Zolmitriptan (R), Zolmitriptan]	–	–	–
